In patent US20250057823A1, “COMPOSITION FOR IMPROVING CARDIAC FUNCTION” (Kyoto University, priority 2021, published 2025):
Where a name gives a salt, the structure may show the parent alone.

Tests used:
TAC mice = experiment: Acute effect on mouse models of heart failure (TAC, single injection 5 weeks later); type: in vivo; conditions: TAC mice 5 weeks after TAC, 50 mg/kg, echocardiography before and 10 minutes after injection
Experimental: Transverse aortic constriction (TAC) was performed as described previously [Date, et al. (2002) The antioxidant N-2-mercaptopropionyl glycine attenuates left ventricular hypertrophy in in vivo murine pressure-overload model. J Am Coll Cardiol 39: 907-912.]. Briefly, 8- to 10-week-old mice were anesthetized with anesthetic (0.3 mg/kg of medetomidine, 4.0 mg/kg of midazolam, and 5.0 mg/kg of butorphanol) administered intraperitoneally, and the proximal portion of the sternum was cut open to visualize the aorta. A 7-0 silk suture was placed around the aortic arch distal to the brachiocephalic artery. The suture was tightened firmly around a blunt 26-gauge needle placed adjacent to the aorta. The needle was then removed, and the chest and overlying skin were closed. Sham-operated mice underwent an identical surgical procedure without ligation of the aortic arch. At the end of the operation, 0.3 mg/kg of atipamezole was administered subcutaneously to reverse medetomidine. FIG. 1 is a schematic diagram of TAC.
To analyze the cardiac function, we used Vevo® 2100 (VISUALSONICS) at the indicated time points after TAC operation. Mice were kept under inhalation anesthesia with 2.5% isoflurane. LV function was measured in M mode of the parasternal short-axis view.
Mice were subjected to TAC at 8 weeks of age. Five weeks later (at 13 weeks of age), the mice were injected with KUS121 (50 mg/kg), and left ventricular ejection fraction (LVEF), left ventricular end-diastolic diameter (LVDd), and heart rate (HR) were assessed by echocardiography before and 10 minutes after the injection.
Mice were subjected to TAC at 8 weeks of age. Five weeks later (at 13 weeks of age), the mice were injected with KUS121 (50 mg/kg), and left ventricular pressure was measured by catheterization before and 10 minutes after the injection. The left ventricular pressure was 46.6 mmHg before KUS121 administration, and increased to 128.9 mmHg 10 minutes after the administration. In addition, Max/min dp/dt was changed from 1295.5/−621.4 mmHg/s to 3972.8/−1311.1 mmHg/s. […] Left ventricular ejection fraction was then measured over time and was 37% before KUS121 administration, increased to 67% 5 minutes after the administration, and returned to the baseline about 2 hours after the administration (FIG. 16).
Mice were subjected to TAC at 8 weeks of age. Five weeks later (at 13 weeks of age), the mice were injected with KUS187 (50 mg/kg), and left ventricular ejection fraction was assessed by echocardiography before and 10 minutes after the injection.

[1] = test system: beagle dog models of heart failure; experiment: Beagle dog models of rapid ventricular pacing-induced heart failure; type: in vivo; conditions: infusion per FIG. 17 protocol
Experimental: After induction of general anesthesia with thiopental sodium (20 mg/kg, i.v.: 0.5 g of Labonal injection, Nipro ES Pharma Corporation) in 10- to 12-month-old male beagle dogs (9.80-11.50 kg), a tracheal cannula was inserted into the airway, and artificial respiration was performed with an Acoma veterinary ventilator (PRO-45Va, Acoma Medical Corporation). Anesthesia was maintained by inhalation of a gas mixture (Air:O2=3:0.2) and 1.0 to 2.5% isoflurane (isoflurane inhalation solution “Pfizer”, Mylan Seiyaku Co., Ltd.) using an Acoma animal anesthesia machine (NS-5000A, Acoma Medical Industry Co., Ltd.) to maintain a constant depth of anesthesia. An incision was made in the right side of the neck of the animal, an animal internal cardiac pacemaker (SIP-501, Star Medical Corporation) was implanted subcutaneously, a retractable screw-in reed (Tendril STS J, St. Jude Medical, Inc.) was inserted through the right jugular vein under X-ray fluoroscopy (BV Pulsera, Koninklijke Philips N.V.), and the tip was implanted in the right ventricular wall. Pacing was started at 244-251 beats/min on postoperative day 1. Dogs with ejection fraction (EF) decreasing to 30-50% at 4 weeks after pacemaker activation were considered to have heart failure and subjected to analysis.
Echocardiography was performed using a general-purpose ultrasound imaging system (Vivid S6, GE Medical Systems). The left ventricular end-diastolic diameter (LVIDd), left ventricular end-systolic diameter (LVIDs), ejection fraction (EF), and left ventricular internal diameter shortening (% FS) were measured in M-mode by placing a sector probe (10 MHz) on the chest.
Dogs were anesthetized intravenously with 14.5 to 22.3 mg/kg of secobarbital sodium (Injectable Ionar sodium (0.2), Nichi-Iko Co., Ltd.), followed by subcutaneous administration of 0.2 mg/kg of meloxicam (Metacam 0.5% injection, Boehringer Ingelheim Animal Health Japan Co.). A tracheal tube was inserted into the airway and connected to an Acoma animal ventilator (PRO-45Va, Acoma Medical Industry Co., Ltd.). The ventilator was set at a respiratory rate of 14-18 strokes/min and a tidal volume of 10-20 mL/kg/stroke, and respiration was controlled by an Acoma animal anesthesia machine (NS-5000A, Acoma Medical Industry Co., Ltd.) using a gas mixture (FiO2=0.3-1.0). The exhaled CO2 partial pressure was monitored using an exhaled carbon dioxide monitor (OLG-2800, Nihon Kohden Corporation). The animals were fixed in the dorsal position and the thighs and neck were shom. Anesthesia was maintained by continuous intravenous infusion of sodium secobarbital (5 mg/kg/hr) through the radial cutaneous vein using a Telfusion syringe pump (STC-523, Terumo Corporation). A Swan-Ganz catheter was inserted through the left femoral vein. A catheter for coronary angiography was inserted through the left femoral artery. A 5F sheath for arterial blood sampling was placed in the right femoral artery. A catheter for PV-loop analysis was inserted from the left internal carotid artery. An 8F occlusion balloon was placed from the right femoral vein for occlusion testing. In addition, KUS121 was administered from the left common jugular vein.
Beagle dog models of heart failure were prepared by rapid ventricular pacing. Cardiac function was assessed by echocardiography before KUS121 administration and after continuous infusion at 40 mg/h. KUS121 increased LVEF, even if it was based on either of the Teichholz method and the modified-Simpson's method, and increased % FS (FIG. 18). Changes in heart rate, systolic blood pressure, diastolic blood pressure, left ventricular ejection fraction, mean pulmonary artery pressure, pulmonary capillary wedge pressure, left ventricular end-diastolic pressure, and adjusted dp/dt are shown in FIGS. 19 to 21. […]

SMILES | left ventricular ejection fraction (LVEF) (TAC mice) | heart rate [1] | left ventricular systolic function [1]
CCCCOc1c(C=O)cc(C)cc1-c1ccc(/N=N/c2cc(S(=O)(=O)O)c3ccccc3c2N)cn1 [KUS187, 4-amino-3-[6-(3-formyl-2-butoxy-5-methylphenyl)pyridine-3-ylazo]naphthalene-1-sulfonic acid sodium salt] | increased |  | 
CC(CCc1ccc(O)cc1)NCCc1ccc(O)c(O)c1 (stereo not drawn) [dobutamine, reference compound] |  | increased heart rate | improved
